Measured values: the supplement of paper PMC10307832

How the values were obtained:
Assay in all cases: relative viability (nuclei count vs DMSO), 5 days (fraction); higher = more cells survive
Tivantinib + Phenformin = compound: O=C1NC(=O)[C@@H](c2cn3c4c(cccc24)CCC3)[C@@H]1c1c[nH]c2ccccc12 [Tivantinib] + N=C(N)NC(=N)NCCc1ccccc1 [Phenformin] (partner 250 µM)
Summary of the method: (§1)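 Lung cancer cell lines were pin-tool dosed in 1536-well plates on the day after seeding, with either a lone drug or a fixed anchor-drug dose plus five library-drug doses (not always all listed) in √10 steps. Nuclei were counted on 4× images after 5 days. Relative viability is the ratio of treated-well to vehicle-well nuclei counts, with each value a median of duplicate plates.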

Crenolanib + Navitoclax = compound: CC1(COc2ccc3c(c2)ncn3-c2ccc3cccc(N4CCC(N)CC4)c3n2)COC1 [Crenolanib] + CC1(C)CCC(c2ccc(Cl)cc2)=C(CN2CCN(c3ccc(C(=O)NS(=O)(=O)c4ccc(N[C@H](CCN5CCOCC5)CSc5ccccc5)c(S(=O)(=O)C(F)(F)F)c4)cc3)CC2)C1 [Navitoclax] (partner 0.5 µM)
Summary of the method: as §1

Crenolanib + Bortezomib = compound: CC1(COc2ccc3c(c2)ncn3-c2ccc3cccc(N4CCC(N)CC4)c3n2)COC1 [Crenolanib] + CC(C)C[C@H](NC(=O)[C@H](Cc1ccccc1)NC(=O)c1cnccn1)B(O)O [Bortezomib] (partner 0.002 µM)
Summary of the method: as §1

Crenolanib + Pemetrexed = compound: CC1(COc2ccc3c(c2)ncn3-c2ccc3cccc(N4CCC(N)CC4)c3n2)COC1 [Crenolanib] + Nc1nc2[nH]cc(CCc3ccc(C(=O)N[C@@H](CCC(=O)O)C(=O)O)cc3)c2c(=O)[nH]1 [Pemetrexed] (partner 0.2 µM)
Summary of the method: as §1

Cell Line	relative viability (Tivantinib + Phenformin; first compound 0.01 µM)	relative viability (Tivantinib + Phenformin; first compound 0.03162 µM)	relative viability (Tivantinib + Phenformin; first compound 0.1 µM)	relative viability (Tivantinib + Phenformin; first compound 0.3162 µM)	relative viability (Crenolanib + Navitoclax; first compound 0.01 µM)	relative viability (Crenolanib + Navitoclax; first compound 0.03162 µM)	relative viability (Crenolanib + Navitoclax; first compound 0.1 µM)	relative viability (Crenolanib + Navitoclax; first compound 0.3162 µM)	relative viability (Crenolanib + Navitoclax; first compound 1 µM)	relative viability (Crenolanib + Bortezomib; first compound 0.01 µM)	relative viability (Crenolanib + Bortezomib; first compound 0.03162 µM)	relative viability (Crenolanib + Bortezomib; first compound 0.1 µM)	relative viability (Crenolanib + Bortezomib; first compound 0.3162 µM)	relative viability (Crenolanib + Bortezomib; first compound 1 µM)	relative viability (Crenolanib + Pemetrexed; first compound 0.01 µM)	relative viability (Crenolanib + Pemetrexed; first compound 0.03162 µM)	relative viability (Crenolanib + Pemetrexed; first compound 0.1 µM)	relative viability (Crenolanib + Pemetrexed; first compound 0.3162 µM)	relative viability (Crenolanib + Pemetrexed; first compound 1 µM)
NCI-H1915	0.362	0.354	0.367	0.378	0.792	0.769	0.786	0.828	0.831	1	0.974	0.929	1.03	0.772	0.536	0.481	0.511	0.528	0.531
NCI-H1975	0.398	0.421	0.403	0.357	1.18	1.02	0.954	1.17	1.24	0.5	0.39	0.359	0.385	0.295	0.306	0.316	0.289	0.284	0.312
NCI-H1993	0.446	0.503	0.514	0.605	0.994	0.92	0.825	0.897	0.884	0.82	1.11	1.04	1.06	0.994	0.606	0.591	0.549	0.559	0.544
NCI-H2009	0.492	0.503	0.481	0.528	1.2	1.17	1.13	1.24	1.01	1.14	1.02	1.01	0.959	0.813	1	1.06	1.07	0.966	0.847
NCI-H2023	0.484	0.41	0.422	0.444	1.02	0.996	0.977	1.09	0.956	1.03	0.95	0.934	1.14	0.578	0.206	0.238	0.231	0.239	0.234
NCI-H2085	0.774	0.639	0.699	0.519	1.08	1.12	1.09	1.24	1.17	1.05	1.1	1.07	1.11	0.968	–	0.88	0.878	0.936	0.949
NCI-H2087	0.446	0.456	0.473	0.472	1.02	0.9	0.867	1.06	1.12	0.885	0.74	0.917	0.865	0.947	0.719	0.7	0.684	0.555	0.675
NCI-H2126	0.527	0.504	0.532	0.47	0.891	0.888	0.831	0.916	0.934	1.09	1.17	1.13	1.15	1.1	0.725	0.678	0.694	0.715	0.605
NCI-H2228	–	0.296	0.283	0.223	0.796	0.62	0.764	1.24	1.3	1.11	0.922	0.776	1.01	0.887	0.3	0.33	0.34	0.337	0.324
